Results reported in the NIST ThermoML archive (doi:10.1021/je200963q).
± gives the expanded uncertainty stated by the source.

Experiment: wn = mass fraction of the nth substance listed
Settings: 303.15 K, 101.3 kPa, Liquid, w1 = 0.08

`CCCCOCCOCCO` [3,6-dioxa-1-decanol] + O showed a viscosity (Capillary tube (Ostwald / Ubbelohde) method) of 1.069 ± 0.009 mPa·s and a mass density of 996.7 ± 0.4 kg/m3.
